pEC50: −log10 of the molar value. Like-named read-outs stand apart in the source and are kept apart here.
Test system: NHACs
Assay: calcium flux assay
Assay type: cell-based, human
Conditions: for Emax: read-out: (A) % Efficacy
In short: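 FLIPR fluorescence (ex 470–495 nm, em 515–575 nm) was read before and after compound dispense at the indicated dose. Chondrocytes (NHACs), 2000 cells/well, had been dye-loaded 24 h after plating with Calcium 5 in HBSS/HEPES plus 5 mM probenecid, 1 h, room temperature.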

Compound | pEC50 (Homo sapiens) | Emax (Homo sapiens) | (A) % Efficacy | pEC50
Cc1cc([C@H]2[C@H]3O[C@H](C[C@H]3F)[C@@H]2C(=O)Nc2ccn(C)n2)ccn1 [Example 101, (1R,2R,3S,4R,5R)-5-fluoro-N-(1-methyl-1H-pyrazol-3-yl)-3-(2-methylpyridin-4-yl)-7-oxabicyclo[2.2.1]heptane-2-carboxamide] | 4.54 | 62% | – | –
CN(C)c1ncc([C@H]2[C@H]3O[C@H](C[C@@H]3O)[C@@H]2C(=O)Nc2ccc(Cl)c(Cl)c2)cn1 [Example 144, (1R,2R,3S,4R,5S)—N-(3,4-dichlorophenyl)-3-(2-(dimethylamino)pyrimidin-5-yl)-5-hydroxy-7-oxabicyclo[2.2.1]heptane-2-carboxamide] | 4.52 | 183% | – | –
COc1cc([C@@H]2[C@@H](C(=O)Nc3ccc(Cl)c(Cl)c3)[C@@H]3O[C@H]2C[C@H]3F)ccn1 [Example 104, (1S,2R,3S,4S,6R)—N-(3,4-dichlorophenyl)-6-fluoro-3-(2-methoxypyridin-4-yl)-7-oxabicyclo[2.2.1]heptane-2-carboxamide] | 4.85 | 96% | – | –
O=C(Nc1cnc(Cl)c(Cl)c1)[C@@H]1[C@@H](c2ccnc(F)c2)[C@H]2O[C@@H]1C[C@H]2NCCO [Example 176, (1R,2R,3S,4R,5R)—N-(5,6-dichloropyridin-3-yl)-3-(2-fluoropyridin-4-yl)-5-((2-hydroxyethyl)amino)-7-oxabicyclo[2.2.1]heptane-2-carboxamide] | 4.60 | 51% | – | –
(1R,2S,3S,4R,5S)-N-(5,6-dichloropyridin-3-yl)-5-hydroxy-3-(pyridin-4-yl)-7-oxabicyclo[2.2.1]heptane-2-carboxamide [Example 10] | – | – | 0% | < 4.30
Cc1cc([C@H]2[C@H]3O[C@H]([C@H](O)[C@@H]3O)[C@@H]2C(=O)Nc2cnc(C)c(C(F)(F)F)c2)ccn1 [Example 163, (1S,2R,3S,4R,5S,6R)-5,6-dihydroxy-N-(6-methyl-5-(trifluoromethyl)pyridin-3-yl)-3-(2-methylpyridin-4-yl)-7-oxabicyclo[2.2.1]heptane-2-carboxamide] | < 4.30 | 23% | – | –
Cc1cc([C@H]2[C@H]3O[C@H]([C@@H]4C[C@@H]43)[C@@H]2C(=O)Nc2cccc(C(F)(F)F)c2)ccn1 (racemic) [Example 121, rac-(1S,2S,4R,5R,6R,7S)-7-(2-methylpyridin-4-yl)-N-(3-(trifluoromethyl)phenyl)-8-oxatricyclo[3.2.1.0^2,4]octane-6-carboxamide] | 4.59 | 353% | – | –
O=C(Nc1ccc(Cl)c(Cl)c1)[C@@H]1[C@@H]2O[C@@H]([C@H]3C[C@H]32)[C@@H]1c1ccnc(F)c1F (single isomer, unassigned) [Example 29] | < 4.30 | 6% | – | –
Cc1cc([C@H]2[C@H]3O[C@H](C[C@@H]3O)[C@@H]2C(=O)Nc2cccc(C(F)(F)F)c2)ccn1 [Example 85, (1R,2R,3S,4R,5S)-5-hydroxy-3-(2-methylpyridin-4-yl)-N-(3-(trifluoromethyl)phenyl)-7-oxabicyclo[2.2.1]heptane-2-carboxamide] | < 4.30 | 56% | – | –
Nc1ncc([C@H]2[C@H]3O[C@H](C[C@@H]3F)[C@H]2C(=O)Nc2ccc(Cl)c(Cl)c2)cn1 [Example 20, (1R,2S,3S,4R,5S)-3-(2-aminopyrimidin-5-yl)-N-(3,4-dichlorophenyl)-5-fluoro-7-oxabicyclo[2.2.1]heptane-2-carboxamide] | < 4.30 | 5% | – | –
O=C(Nc1ccc(Cl)c(Cl)c1)[C@@H]1[C@@H]2O[C@@H]([C@H]3C[C@H]32)[C@@H]1c1ccncc1 [Example 44, (1S,2S,4R,5R,6S,7S)—N-(3,4-dichlorophenyl)-7-(pyridin-4-yl)-8-oxatricyclo[3.2.1.0^2,4]octane-6-carboxamide] | < 4.30 | 0% | – | –
O=C(Nc1ccc(Cl)c(Cl)c1)[C@@H]1[C@H](c2ccnc(F)c2)[C@@H]2O[C@H]1C[C@H]2O (single isomer, unassigned) [Example 52b] | < 4.30 | 1% | – | –
Cc1cc([C@H]2[C@H]3O[C@H](C[C@@H]3F)[C@H]2C(=O)Nc2cccc(C(F)(F)F)c2)ccn1 [Example 17, (1R,2S,3S,4R,5S)-5-fluoro-3-(2-methylpyridin-4-yl)-N-[3-(trifluoromethyl)phenyl]-7-oxabicyclo[2.2.1]heptane-2-carboxamide] | < 4.30 | 0% | – | –
O=C(Nc1ccc(Cl)c(Cl)c1)[C@@H]1[C@@H](c2ccnc(F)c2F)[C@H]2O[C@@H]1C[C@@H]2O [Example 146, (1R,2R,3S,4R,5S)—N-(3,4-dichlorophenyl)-3-(2,3-difluoropyridin-4-yl)-5-hydroxy-7-oxabicyclo[2.2.1]heptane-2-carboxamide] | 4.70 | 150% | – | –
O=C(Nc1ccc(Cl)c(Cl)c1)[C@@H]1[C@@H]2O[C@@H]([C@H]3C[C@H]32)[C@@H]1c1cnc(F)nc1 [Example 36, (1S,2S,4R,5R,6S,7S)—N-(3,4-dichlorophenyl)-7-(2-fluoropyrimidin-5-yl)-8-oxatricyclo[3.2.1.0^2,4]octane-6-carboxamide] | 5.07 | 124% | – | –
COc1ccc(NC(=O)[C@@H]2[C@@H]3O[C@@H]([C@H]4C[C@H]43)[C@@H]2c2ccncc2)cn1 [Example 33, (1S,2S,4R,5R,6S,7S)—N-(6-methoxypyridin-3-yl)-7-(pyridin-4-yl)-8-oxatricyclo[3.2.1.0^2,4]octane-6-carboxamide] | 5.34 | 49% | – | –
O=C(Nc1ccc(Cl)c(Cl)c1)[C@H]1[C@@H]2O[C@@H]([C@H]3C[C@H]32)[C@@H]1c1ccnc(F)c1F (racemic) [Example 122, rac-(1S,2S,4R,5R,6R,7S)—N-(3,4-dichlorophenyl)-7-(2,3-difluoropyridin-4-yl)-8-oxatricyclo[3.2.1.0^2,4]octane-6-carboxamide] | 5.30 | 32% | – | –
O=C(Nc1cccc(C(F)(F)F)c1)[C@H]1[C@@H]2O[C@@H]([C@H]3C[C@H]32)[C@@H]1c1ccnc(F)c1 [Example 134, (1S,2S,4R,5R,6R,7S)-7-(2-fluoropyridin-4-yl)-N-(3-(trifluoromethyl)phenyl)-8-oxatricyclo[3.2.1.0^2,4]octane-6-carboxamide] | 4.72 | 249% | – | –
COc1cc([C@H]2[C@H]3O[C@H]([C@@H]4C[C@@H]43)[C@H]2C(=O)Nc2cnc(Cl)c(Cl)c2)ccn1 [Example 1, (1S,2S,4R,5R,6S,7S)—N-(5,6-dichloropyridin-3-yl)-7-(2-methoxypyridin-4-yl)-8-oxatricyclo[3.2.1.0^2,4]octane-6-carboxamide] | 5.47 | 164% | – | –
O=C(Nc1cccc(C(F)(F)F)c1)[C@@H]1[C@@H]2O[C@@H]([C@H]3C[C@H]32)[C@@H]1c1ccncc1 [Example 38, (1S,2S,4R,5R,6S,7S)-7-(pyridin-4-yl)-N-(3-(trifluoromethyl)phenyl)-8-oxatricyclo[3.2.1.0^2,4]octane-6-carboxamide] | 5.00 | 36% | – | –
Cc1cc([C@H]2[C@@H]3C[C@@H](O)C(O3)[C@H]2C(=O)Nc2cccc(C(F)(F)F)c2)ccn1 (stereo in doubt) [Example 9, (1R,2S,3S,4S,6R)-6-hydroxy-3-(2-methylpyridin-4-yl)-N-[3-(trifluoromethyl)phenyl]-7-oxabicyclo[2.2.1]heptane-2-carboxamide] | < 4.30 | 0% | – | –
